In patent US10696692B2, “Amido-benzyl sulfone and sulfoxide derivates” (Forma TM, LLC, priority 2012, dated 2020):
Like-named read-outs stand apart in the source and are kept apart here.

Experiments:
A2780 cells = assay: Assay 2: In-Vitro Cell Proliferation Assay (A2780 cells, SRB readout, 72 hours); assay type: cell-based; conditions: A2780 cells, 72 hours, SRB, read-out: Cell Proliferation (IC50);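 note: viable cells counted via sulforhodamine B staining, absorbance at 570 nm, after 72 h exposure at 37 °C, DMSO 0.1% as control, media-only background subtracted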
NAMPT = NAMPT (Homo sapiens (Human), UniProt P43490); assay: Assay 1: Biochemical Inhibition Assay (NAMPT enzymatic reaction, NMN quantified by mass spectrometry); conditions: read-out: Biochemical (IC50);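 note: recombinant His-tagged human NAMPT preincubated with compound 15 min, then reacted 30 min at rt with 1 µM NAM, 100 µM PRPP, 2.5 mM ATP, NMN product read by RapidFire MS, normalized to L-Cystathionine internal standard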
Chain of NAMPT (P43490 whole entry): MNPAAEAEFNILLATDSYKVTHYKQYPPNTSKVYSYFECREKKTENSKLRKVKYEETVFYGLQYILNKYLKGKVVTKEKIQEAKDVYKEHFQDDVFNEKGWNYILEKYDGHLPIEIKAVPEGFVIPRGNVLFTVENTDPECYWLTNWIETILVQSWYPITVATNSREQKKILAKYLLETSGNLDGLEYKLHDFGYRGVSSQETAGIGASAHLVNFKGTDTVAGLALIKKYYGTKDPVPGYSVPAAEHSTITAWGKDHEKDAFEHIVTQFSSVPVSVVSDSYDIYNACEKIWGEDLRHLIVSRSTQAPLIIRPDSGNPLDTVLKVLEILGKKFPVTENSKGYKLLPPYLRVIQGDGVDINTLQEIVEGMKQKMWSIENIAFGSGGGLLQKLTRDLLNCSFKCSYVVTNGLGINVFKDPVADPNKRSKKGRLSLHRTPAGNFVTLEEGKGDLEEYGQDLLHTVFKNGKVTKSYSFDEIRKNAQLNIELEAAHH

Compound	IC50 (A2780 cells)	IC50 (NAMPT)	IC50 (A2780 cells; Homo sapiens, A2780, 72 h)
1H-Pyrazolo[3,4- b]pyridine-5-carboxylic acid 4-(4-hydroxymethyl- piperidine-1-sulfonyl)- benzylamide [Example 174]	84.4 nM	152 nM	
O=C(NCc1ccc(S(=O)(=O)N2CCCC(O)C2)cc1)c1cnc2nccn2c1 (racemic) [Example 32, Imidazo[1,2-a]pyrimidine-6-carboxylic acid 4-(3-hydroxy-piperidine-1-sulfonyl)-benzylamide]		7.7 nM	861 nM
O=C(NCc1ccc(S(=O)(=O)N2CCCC(O)C2)cc1)c1cnc2[nH]ncc2c1 (racemic) [Example 33, 1H-Pyrazolo[3,4-b]pyridine-5-carboxylic acid 4-(3-hydroxy-piperidine-1-sulfonyl)-benzylamide]		169 nM	184 nM
O=C(NCc1ccc(S(=O)(=O)N2CCCC(O)C2)cc1)c1cc2ccncc2o1 (racemic) [Example 34, Furo[2,3-c]pyridine-2-carboxylic acid 4-(3-hydroxy-piperidine-1-sulfonyl)-benzylamide]		25.7 nM	51.9 nM
CC(C)(C)OC(=O)N1C[C@@H]2OCCN(S(=O)(=O)c3ccc(CNC(=O)c4ccc5nccn5c4)cc3)[C@@H]2C1 (racemic) [Example 130, cis-4-(4-{[(Imidazo[1,2-a]pyridine-6-carbonyl)-amino]-methyl}-benzenesulfonyl)-hexahydro-pyrrolo[3,4-b][1,4]oxazine-6-carboxylic acid tert-butyl ester]	11.3 nM	75.8 nM	
CC(C)(C)OC(=O)N1CC2CN(S(=O)(=O)c3ccc(CNC(=O)c4ccc5nccn5c4)cc3)CC(C1)O2 (racemic) [Example 133, cis-7-(4-{[(Imidazo[1,2-a]pyridine-6-carbonyl)-amino]-methyl}-benzenesulfonyl)-9-oxa-3,7-diaza-bicyclo[3.3.1]nonane-3-carboxylic acid tert-butyl ester]		330 nM	96.9 nM
CC(C)(C)OC(=O)N1CC2OCCN(S(=O)(=O)c3ccc(CNC(=O)c4ccc5nccn5c4)cc3)C2C1 (racemic) [Example 134, cis-4-(4-{([(Imidazo[1,2-a]pyridine-6-carbonyl)-amino]-methyl}-benzenesulfonyl)-hexahydro-pyrrolo[3,4-b][1,4]oxazine-6-carboxylic acid tert-butyl ester]	49.5 nM	166 nM	
O=C(NCc1ccc(S(=O)(=O)N2CCCCC2)cc1)c1cnc2cn[nH]c2c1 [Example 49, 1H-Pyrazolo[4,3-b]pyridine-6-carboxylic acid 4-(piperidine-1-sulfonyl)-benzylamide]		2000 nM	
O=C(NCc1ccc(S(=O)(=O)N2CCC(N3CCCC3)CC2)cc1)c1cnc2[nH]ncc2c1 [Example 156, 1 H-Pyrazolo[3,4-b]pyridine-5-carboxylic acid 4-(4-pyrrolidin-1-yl-piperidine-1-sulfonyl)-benzylamide]			35.1 nM
O=C(NCc1ccc(S(=O)(=O)N2CC3COCC3C2)cc1)c1cnc2[nH]ncc2c1 (stereo not drawn) [Example 158, 1H-Pyrazolo[3,4-b]pyridine-5-carboxylic acid 4-(tetrahydro-furo[3,4-c]pyrrole-5-sulfonyl)-benzylamide]			182 nM

More lines, in order of falling IC50 (A2780 cells; Homo sapiens, A2780, 72 h), values ahead:

IC50 (A2780 cells)	IC50 (NAMPT)	IC50 (A2780 cells; Homo sapiens, A2780, 72 h)	Compound
	38.3 nM	35.1 nM	O=C(NCc1ccc(S(=O)(=O)N2CCCC(O)C2)cc1)c1cc2cnccc2[nH]1 (racemic) [Example 35, 1H-Pyrrolo[3,2-c]pyridine-2-carboxylic acid 4-(3-hydroxy-piperidine-1-sulfonyl)-benzylamide]
	18.1 nM	25.3 nM	O=C(NCc1ccc(S(=O)(=O)N2CCCC(O)C2)cc1)c1ccc2nccn2c1 (racemic) [Example 19, Imidazo[1,2-a)pyridine-6-carboxylic acid 4-(3-hydroxy-piperidine-1-sulfonyl)-benzylamide]
	37.4 nM	17.2 nM	CC(C)(C)OC(=O)N1CCCCC12CCCN(S(=O)(=O)c1ccc(CNC(=O)c3ccc4nccn4c3)cc1)C2 (racemic) [Example 123]
		13.4 nM	CCN1CCC([S+]([O-])c2ccc(CNC(=O)c3ccc4nccn4c3)cc2)CC1 (stereo not drawn) [Example 370, N-[[4-[(1-ethyl-4-piperidyl)sulfinyl]phenyl]methyl]imidazo[1,2-a]pyridine-6-carboxamide]
		12.9 nM	CC(C)N1CCN(S(=O)(=O)c2ccc(CNC(=O)c3ccc4nccn4c3)cc2)CC1 [Example 18, Imidazo[1,2-a]pyridine-6-carboxylic acid 4-(4-isopropyl-piperazine-1-sulfonyl)-benzylamide]
	46.9 nM	11.4 nM	CC(C)(C)OC(=O)N1C[C@H]2CN(S(=O)(=O)c3ccc(CNC(=O)c4ccc5nccn5c4)cc3)C[C@H]21 (racemic) [Example 128, cis-3-(4-{[(Imidazo[1,2-a]pyridine-6-carbonyl)-amino]-methyl}-benzenesulfonyl)-3,6-diaza-bicyclo[3.2.0]heptane-6-carboxylic acid tert-butyl ester]
	20.3 nM	9.7 nM	CC(=O)N(C)C1CCN(S(=O)(=O)c2ccc(CNC(=O)c3ccc4nccn4c3)cc2)C1 (racemic) [Example 101, Imidazo[1,2-a]pyridine-6-carboxylic acid 4-[3-(acetyl-methyl-amino)-pyrrolidine-1-sulfonyl]-benzylamide]
	20.2 nM	5.52 nM	CC(C)(C)OC(=O)N1C[C@H]2CCN(S(=O)(=O)c3ccc(CNC(=O)c4ccc5nccn5c4)cc3)[C@H]2C1 (racemic) [Example 135, cis-1-(4-{[(Imidazo[1,2-a]pyridine-6-carbonyl)-amino]-methyl}-benzenesulfonyl)-hexahydro-pyrrolo[3,4-b]pyrrole-5-carboxylic acid tert-butyl ester]
	34.5 nM	5.1 nM	CC(C)(C)OC(=O)N1CCC2(CCCN(S(=O)(=O)c3ccc(CNC(=O)c4ccc5nccn5c4)cc3)C2)C1 (racemic) [Example 102, 7-(4-{[(Imidazo[1,2-a]pyridine-6-carbonyl)-amino]-methyl}-benzenesulfonyl)-2,7-diaza-spiro[4.5]decane-2-carboxylic acid tert-butyl ester]
	19.4 nM	3.22 nM	CC(C)(C)OC(=O)N[C@@]12C[C@@H]1CN(S(=O)(=O)c1ccc(CNC(=O)c3ccc4nccn4c3)cc1)C2 (racemic) [Example 132, cis-[3-(4-{[(Imidazo[1,2-a]pyridine-6-carbonyl)-amino]-methyl}-benzenesulfonyl)-3-aza-bicyclo[3.1.0]hex-1-yl]-carbamic acid tert-butyl ester]
	5.6 nM	2.5 nM	O=C(NCc1ccc(S(=O)(=O)N2CCC(C(F)(F)F)C2)cc1)c1ccc2nccn2c1 (racemic) [Example 111, Imidazo[1,2-a]pyridine-6-carboxylic acid 4-(3-trifluoromethyl-pyrrolidine-1-sulfonyl)-benzylamide]
	17.5 nM	1.25 nM	CC(C)(C)OC(=O)N1CCCC2(C1)CN(S(=O)(=O)c1ccc(CNC(=O)c3ccc4nccn4c3)cc1)CCO2 (racemic) [Example 126, 4-(4-{[(Imidazo[1,2-a]pyridine-6-carbonyl)-amino]-methyl}-benzenesulfonyl)-1-oxa-4,8-diaza-spiro[5.5]undecane-8-carboxylic acid tert-butyl ester]
